In patent US20140039007A1, “COMPOSITIONS AND METHODS FOR MODULATING FARNESOID X RECEPTORS” (priority 2010, published 2014):

Target: T1, human GST-FXR LBD (Homo sapiens, UniProt Q96RI1)
T1 construct: purchased Invitrogen
T1 sequence (Q96RI1 193-472 isoform Q96RI1-2): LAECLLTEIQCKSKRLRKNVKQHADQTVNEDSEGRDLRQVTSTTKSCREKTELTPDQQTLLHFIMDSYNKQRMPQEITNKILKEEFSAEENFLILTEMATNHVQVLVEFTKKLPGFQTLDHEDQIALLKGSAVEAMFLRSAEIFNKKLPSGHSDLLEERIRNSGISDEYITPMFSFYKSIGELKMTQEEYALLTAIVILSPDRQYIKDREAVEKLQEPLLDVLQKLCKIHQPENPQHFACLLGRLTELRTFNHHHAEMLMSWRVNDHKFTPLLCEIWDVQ
Experiment: Human GST-FXR LBD Co-activator interaction Assay (FXR HTRF assay)
Assay type: biochemical
Conditions: GST-FXR LBD / biotin-labeled SRC-1 peptide, response relative to GW4064
Excerpt: Human GST-FXR LBD Co-activator interaction Assay.
The FXR HTRF assay is a biochemical assay measuring the interaction between FXR and a coactivator protein (SRC1). The ligand-induced interaction with a coactivator protein is a critical step in transcriptional activation by FXR. Thus, this is an assay designed to measure FXR agonist activity of compounds.
Recombinant human Farnesoid X Receptor (FXR) ligand binding domain (amino acids 193-472) fused to glutathione S-transferase (GST) purified protein (GST-FXR LBD) was purchased (Invitrogen). The ligand-dependent interaction between GST-FXR LBD and a peptide derived from Steroid Receptor Coactivator-1 (SRC-1) was monitored by Fluorescence Resonance Energy Transfer (FRET). GST-FXR LBD was mixed with a biotin-labeled SRC-1 peptide (Sequence: Biotin-[…]-SPS-CONH2, American Peptide) in assay buffer (50 mM Tris HCl, pH 7.4, 50 mM NaCl, 1 mM TCEP and 0.2% bovine serum albumen) and plated in 384 black Proxi plates (Greiner Bio-One). Test compounds (in DMSO solution) and detection reagents (anti-GST-Cryptate labeled antibody and Streptavidin-XL665 conjugate; CisBio) were added in assay buffer containing 50 mM KF. Plates are incubated at room temperature in the dark for 2.5 hours before reading on an Envision (PerkinElmer) at 665 nm and 590 nm. The HTRF assay results were calculated from the 665 nm/590 nm ratio (ratio=(A665 nm/A590 nm)×10^4) and expressed in Delta F %=(Ratiosample−Rationegative)/Rationegative×100.
A negative control (without Streptavidin-XL665) was run with each assay and represented the background fluorescence. A reference FXR agonist, GW4064, was included in each experiment as positive control. The efficacy of each test compound was compared to that of GW4064. At each concentration, the relative activity of the test compound was expressed as Response %=(Rsample−RDMSO)/(Rpositive−RDMSO), where Rsample is the HTRF response, (expressed in Delta F %) for the test compound, Rpositive is the maximal response for GW4064 at saturating concentrations, and RDMSO is the response for DMSO control. The EC50 values were calculated using GraphPad Prism (GraphPad Software) using non-linear regression curve fit (log(agonist) vs. response−variable slope (four parameters)).

SMILES | EC50 [nM]
COC(=O)c1cccc(-c2nc(N3CCC(OCc4c(-c5c(Cl)cccc5Cl)noc4C4CC4)CC3)no2)n1 [Example 9A, methyl 6-[3-(4-{[5-cyclopropyl-3-(2,6-dichlorophenyl)-1,2-oxazol-4-yl]methoxy}piperidin-1-yl)-1,2,4-oxadiazol-5-yl]pyridine-2-carboxylate] | 463
COC(=O)c1cccc(-c2nc(N3CCC(OCc4c(-c5ccccc5OC(F)(F)F)noc4C4CC4)CC3)no2)c1 [Example 2A, methyl 3-{3-[4-({5-cyclopropyl-3-[2-(trifluoromethoxy)phenyl]-1,2-oxazol-4-yl}methoxy)piperidin-1-yl]-1,2,4-oxadiazol-5-yl}benzoate] | 2020
COC(=O)c1ccc(-c2nc(N3CCC(OCc4c(-c5ccccc5OC(F)(F)F)noc4C4CC4)CC3)no2)cc1 [Example 1A, Methyl 4-(3-(4-((5-cyclopropyl-3-(2-(trifluoromethoxy)phenyl)isoxazol-4-yl)methoxy)piperidin-1-yl)-1,2,4-oxadiazol-5-yl)benzoate] | 2380
COC(=O)c1ccc(-c2nc(N3CCC(OCc4c(-c5c(Cl)cccc5Cl)noc4C4CC4)CC3)no2)cc1 [Example 4A] | 812
O=C(O)c1ccc(-c2nc(N3CCC(OCc4c(-c5c(F)cccc5F)noc4C4CC4)CC3)no2)cc1 [Example 10, 4-[3-(4-{[5-cyclopropyl-3-(2,6-difluorophenyl)-1,2-oxazol-4-yl]methoxy}piperidin-1-yl)-1,2,4-oxadiazol-5-yl]benzoic acid] | 934
O=C(O)c1ccc(-c2nc(N3CCC(OCc4c(-c5ccccc5C(F)(F)F)noc4C4CC4)CC3)no2)cc1 [Example 11, 4-{3-[4-({5-cyclopropyl-3-[2-(trifluoromethyl)phenyl]-1,2-oxazol-4-yl}methoxy)piperidin-1-yl]-1,2,4-oxadiazol-5-yl}benzoic acid] | 587
COC(=O)c1ccc(-c2nc(N3CCC(OCc4c(-c5ccccc5OC(F)(F)F)noc4C4CC4)CC3)no2)s1 [Example 3A, methyl 5-{3-[4-({5-cyclopropyl-3-[2-(trifluoromethoxy)phenyl]-1,2-oxazol-4-yl}methoxy)piperidin-1-yl]-1,2,4-oxadiazol-5-yl}thiophene-2-carboxylate] | 946
O=C(O)c1ccc(-c2nc(N3CCC(OCc4c(-c5ccccc5OC(F)(F)F)noc4C4CC4)CC3)no2)cc1 [Example 1B, 4-(3-(4-((5-cyclopropyl-3-(2-(trifluoromethoxy)phenyl)isoxazol-4-yl)methoxy)piperidin-1-yl)-1,2,4-oxadiazol-5-yl)benzoic acid] | 90
O=C(O)c1ccc(-c2nc(N3CCC(OCc4c(-c5ccccc5OC(F)(F)F)noc4C4CC4)CC3)no2)s1 [Example 3B, 5-{3-[4-({5-cyclopropyl-3-[2-(trifluoromethoxy)phenyl]-1,2-oxazol-4-yl}methoxy)piperidin-1-yl]-1,2,4-oxadiazol-5-yl}thiophene-2-carboxylic acid] | 275
O=C(O)c1cccc(-c2nc(N3CCC(OCc4c(-c5ccccc5OC(F)(F)F)noc4C4CC4)CC3)no2)c1 [Example 2B, 3-{3-[4-({5-cyclopropyl-3-[2-(trifluoromethoxy)phenyl]-1,2-oxazol-4-yl}methoxy)piperidin-1-yl]-1,2,4-oxadiazol-5-yl}benzoic acid] | 128

Now from value to compound:

EC50 [nM] | SMILES
1560 | O=C(O)C1CCC(c2nc(N3CCC(OCc4c(-c5c(Cl)cccc5Cl)noc4C4CC4)CC3)no2)C1 (stereo not shown) [Example 7B, 3-[3-(4-{[5-cyclopropyl-3-(2,6-dichlorophenyl)-1,2-oxazol-4-yl]methoxy}piperidin-1-yl)-1,2,4-oxadiazol-5-yl]cyclopentane-1-carboxylic acid]
1620 | COC(=O)C1CCC(c2nc(N3CCC(OCc4c(-c5c(Cl)cccc5Cl)noc4C4CC4)CC3)no2)CC1 (stereo not shown) [Example 6A, methyl 4-[3-(4-{[5-cyclopropyl-3-(2,6-dichlorophenyl)-1,2-oxazol-4-yl]methoxy}piperidin-1-yl)-1,2,4-oxadiazol-5-yl]cyclohexane-1-carboxylate]
105 | O=C(O)c1ccc(-c2nc(N3CCC(OCc4c(-c5c(Cl)cccc5Cl)noc4C4CC4)CC3)no2)s1 [Example 8B, 5-[3-(4-{[5-cyclopropyl-3-(2,6-dichlorophenyl)-1,2-oxazol-4-yl]methoxy}piperidin-1-yl)-1,2,4-oxadiazol-5-yl]thiophene-2-carboxylic acid]
823 | O=C(O)C1CCC(c2nc(N3CCC(OCc4c(-c5c(Cl)cccc5Cl)noc4C4CC4)CC3)no2)CC1 (stereo not shown) [Example 6B, 4-[3-(4-{[5-cyclopropyl-3-(2,6-dichlorophenyl)-1,2-oxazol-4-yl]methoxy}piperidin-1-yl)-1,2,4-oxadiazol-5-yl]cyclohexane-1-carboxylic acid]
2950 | COC(=O)c1ccc(-c2nc(N3CCC(OCc4c(-c5c(Cl)cccc5Cl)noc4C4CC4)CC3)no2)s1 [Example 8A, methyl 5-[3-(4-{[5-cyclopropyl-3-(2,6-dichlorophenyl)-1,2-oxazol-4-yl]methoxy}piperidin-1-yl)-1,2,4-oxadiazol-5-yl]thiophene-2-carboxylate]
128 | O=C(O)c1cccc(-c2nc(N3CCC(OCc4c(-c5c(Cl)cccc5Cl)noc4C4CC4)CC3)no2)n1 [Example 9B, 6-[3-(4-{[5-cyclopropyl-3-(2,6-dichlorophenyl)-1,2-oxazol-4-yl]methoxy}piperidin-1-yl)-1,2,4-oxadiazol-5-yl]pyridine-2-carboxylic acid]
1590 | COC(=O)C1CCC(c2nc(N3CCC(OCc4c(-c5c(Cl)cccc5Cl)noc4C4CC4)CC3)no2)C1 (stereo not shown) [Example 7A, methyl-3-[3-(4-{[5-cyclopropyl-3-(2,6-dichlorophenyl)-1,2-oxazol-4-yl]methoxy}piperidin-1-yl)-1,2,4-oxadiazol-5-yl]cyclopentane-1-carboxylate]
60 | O=C(O)c1cccc(-c2nc(N3CCC(OCc4c(-c5c(Cl)cccc5Cl)noc4C4CC4)CC3)no2)c1 [Example 5B, 3-[3-(4-{[5-cyclopropyl-3-(2,6-dichlorophenyl)-1,2-oxazol-4-yl]methoxy}piperidin-1-yl)-1,2,4-oxadiazol-5-yl]benzoic acid]
114 | O=C(O)c1ccc(-c2nc(N3CCC(OCc4c(-c5c(Cl)cccc5Cl)noc4C4CC4)CC3)no2)cc1 [Example 4B]
